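48-hour exposure; five concentrations; linearly interpolated endpoints. GI50: concentration for 50% inhibition of growth.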 Calls of active or inactive are those of the source. No stated cut-off is given here; in the data, active = GI50 up to about 1.1 µM and inactive = higher.
What was measured:
Assay in all cases: DTP human tumour cell line panel, 48 h
[1] = tested on: RXF 393
[2] = tested on: A549
[3] = tested on: UACC-257
[4] = tested on: SNB-19
[5] = tested on: SNB-75
[6] = tested on: HCT-116
[7] = tested on: UO-31
[8] = tested on: ACHN
[9] = tested on: OVCAR-3
[10] = tested on: HCT-15
[11] = tested on: U-251
[12] = tested on: OVCAR-5
[13] = tested on: NCI-H522
[14] = tested on: 786-0
[15] = tested on: HT-29
[16] = tested on: Malme-3M
[17] = tested on: NCI-H23
[18] = tested on: SW-620
[19] = tested on: EKVX
[20] = tested on: HOP-92

SMILES | GI50 [1] | GI50 [2] | GI50 [3] | GI50 [4] | GI50 [5] | GI50 [6] | GI50 [7] | GI50 [8] | GI50 [9] | GI50 [10] | GI50 [11] | GI50 [12] | GI50 [13] | GI50 [14] | GI50 [15] | GI50 [16] | GI50 [17] | GI50 [18] | GI50 [19] | GI50 [20]
Cc1cc2c(=O)cc(-c3ccc(F)cc3)oc2c(C(=O)O)c1C | > 100 µM (inactive) | > 100 µM (inactive) | > 100 µM (inactive) | > 100 µM (inactive) | > 100 µM (inactive) | > 100 µM (inactive) | > 100 µM (inactive) | > 100 µM (inactive) | > 100 µM (inactive) | > 100 µM | > 100 µM (inactive) | > 100 µM (inactive) | > 100 µM (inactive) | > 100 µM (inactive) | > 100 µM (inactive) | > 100 µM (inactive) | > 100 µM (inactive) | > 100 µM (inactive) | > 100 µM (inactive) | 
C(=C\c1cc(-c2ccc3ccccc3n2)nc2ccc3ccccc3c12)/c1ccc2ccccc2n1 | > 100 µM (inactive) | > 100 µM (inactive) | > 100 µM (inactive) | > 100 µM (inactive) | 24 µM (inactive) | > 100 µM (inactive) | > 100 µM (inactive) | > 100 µM (inactive) | > 100 µM (inactive) | > 100 µM | > 100 µM (inactive) | > 100 µM (inactive) |  | > 100 µM (inactive) | > 100 µM (inactive) | > 100 µM (inactive) | > 10 µM (inactive) | > 100 µM (inactive) | > 100 µM (inactive) | 
Cc1cc(=O)c2c(O)cc3c(c2o1)CC=C(COC1OC(COC2OC(CO)C(O)C(O)C2O)C(O)C(O)C1O)CO3 (stereo not drawn) |  | > 100 µM (inactive) | > 100 µM (inactive) | > 100 µM (inactive) | > 100 µM (inactive) | > 100 µM (inactive) | > 100 µM (inactive) | > 100 µM (inactive) | > 100 µM (inactive) | > 100 µM | > 100 µM (inactive) | > 100 µM (inactive) | > 100 µM (inactive) | > 100 µM (inactive) |  | > 100 µM (inactive) | > 100 µM (inactive) | > 100 µM (inactive) | > 100 µM (inactive) | > 100 µM (inactive)
COc1ccc2c3c1C(=O)CCC3CO2 (stereo not drawn) |  | > 100 µM (inactive) | > 100 µM (inactive) | > 100 µM (inactive) |  | > 100 µM (inactive) | > 100 µM (inactive) | > 100 µM (inactive) | > 100 µM (inactive) | > 100 µM | > 100 µM (inactive) | > 100 µM (inactive) | > 100 µM (inactive) | > 100 µM (inactive) | > 100 µM (inactive) | > 100 µM (inactive) | > 100 µM (inactive) | > 100 µM (inactive) | 91 µM (inactive) | > 100 µM (inactive)
CC1(C)CC(=O)C/C(=N/c2ccc([N+](=O)[O-])cc2)C1 | 47.4 µM (inactive) | > 100 µM (inactive) | > 100 µM (inactive) |  | > 100 µM (inactive) | 17.6 µM (inactive) | 54.6 µM (inactive) | > 100 µM (inactive) | 76.4 µM (inactive) | 64.3 µM | 16.3 µM (inactive) | > 100 µM (inactive) | 40.9 µM (inactive) | > 100 µM (inactive) | 87.3 µM (inactive) | > 100 µM (inactive) | > 100 µM (inactive) |  | > 100 µM (inactive) | 
Cc1cc(C)c2c(-c3ccccc3)cc(=O)[nH]c2c1 | > 100 µM (inactive) | > 100 µM (inactive) | > 100 µM (inactive) |  | > 100 µM (inactive) | > 100 µM (inactive) |  | > 100 µM (inactive) | > 100 µM (inactive) | > 100 µM | > 100 µM (inactive) | > 100 µM (inactive) | > 100 µM (inactive) | > 100 µM (inactive) | > 100 µM (inactive) | > 100 µM (inactive) | > 100 µM (inactive) | > 100 µM (inactive) | > 100 µM (inactive) | 
CCCCCCCc1ccc(-c2nnc(/N=N/c3ccc(OCCCCC)cc3)s2)s1 | > 100 µM (inactive) | > 100 µM (inactive) | > 100 µM (inactive) | > 100 µM (inactive) | > 100 µM (inactive) | > 100 µM (inactive) | > 100 µM (inactive) | > 100 µM (inactive) | > 100 µM (inactive) | > 100 µM | > 100 µM (inactive) | > 100 µM (inactive) | > 100 µM (inactive) | > 100 µM (inactive) | > 100 µM (inactive) | > 100 µM (inactive) | > 100 µM (inactive) | > 100 µM (inactive) | > 100 µM (inactive) | 
Cc1ccc(S(=O)(=O)c2c3nc4ccccc4nc3n3c2[nH]c2ccccc23)cc1 |  | > 100 µM (inactive) | > 100 µM (inactive) | > 100 µM (inactive) | > 100 µM (inactive) | > 100 µM (inactive) | > 100 µM (inactive) | > 100 µM (inactive) | > 100 µM (inactive) | > 100 µM | > 100 µM (inactive) | > 100 µM (inactive) | > 100 µM (inactive) | > 100 µM (inactive) |  | > 100 µM (inactive) | > 100 µM (inactive) | > 100 µM (inactive) | > 100 µM (inactive) | > 100 µM (inactive)
Cc1c(-c2ccc(O)cc2)n(CCCCCCNCCOC(=O)NCCCc2ccc(N(CCCl)CCCl)cc2)c2ccc(O)cc12 |  | 1.88 µM (inactive) | 1.89 µM (inactive) | 13.2 µM (inactive) | 1.98 µM (inactive) | 1.52 µM (inactive) |  | 3.71 µM (inactive) | 2.16 µM (inactive) | 1.79 µM | 3.07 µM (inactive) | 15.1 µM (inactive) | 1.69 µM (inactive) | 1.59 µM (inactive) | 1.59 µM (inactive) | 1.6 µM (inactive) | 1.78 µM (inactive) | 2.15 µM (inactive) | 3.05 µM (inactive) | 
N#CC(c1ccc(Cl)cc1)c1cccc(C(C#N)c2ccc(Cl)cc2)n1 (stereo not drawn) |  | 10.6 µM (inactive) | 14.1 µM (inactive) | 26.5 µM (inactive) | 15.9 µM (inactive) |  | 4.65 µM (inactive) | 10.8 µM (inactive) | 15.9 µM (inactive) |  | 18.1 µM (inactive) | > 100 µM (inactive) | 17.6 µM (inactive) | 50.4 µM (inactive) | 19.1 µM (inactive) | 30.6 µM (inactive) | 3.95 µM (inactive) | 46 µM (inactive) | 25 µM (inactive) | 15.2 µM (inactive)
CCSC1=N/C(=C\c2ccco2)C(Nc2ccc(C)cc2)=N1 |  | > 100 µM (inactive) |  | > 100 µM (inactive) | > 100 µM (inactive) | > 100 µM (inactive) | > 100 µM (inactive) | > 100 µM (inactive) | > 100 µM (inactive) | > 100 µM | > 100 µM (inactive) | > 100 µM (inactive) | > 100 µM (inactive) | > 100 µM (inactive) | > 100 µM (inactive) | 52 µM (inactive) | > 100 µM (inactive) | > 100 µM (inactive) | > 100 µM (inactive) | > 100 µM (inactive)
COc1ccccc1C1=C2C(=O)N(C)C(c3ccccc3OC)=C2C(=O)N1C |  | 44.1 µM (inactive) | 79.8 µM (inactive) | 32 µM (inactive) |  | 37.4 µM (inactive) | 50.8 µM (inactive) | 68.5 µM (inactive) | 33.5 µM (inactive) | > 100 µM | 37.9 µM (inactive) | > 100 µM (inactive) | 43.2 µM (inactive) | 29.5 µM (inactive) | > 100 µM (inactive) | 45.4 µM (inactive) | 59 µM (inactive) | > 100 µM (inactive) | > 100 µM (inactive) | 30.3 µM (inactive)
COc1cc(OC)cc(-n2c(N)c(-c3nc4ccccc4s3)c3ccc([N+](=O)[O-])cc3c2=O)c1 |  |  | > 100 µM (inactive) | 18.1 µM (inactive) | 27.8 µM (inactive) | 24.9 µM (inactive) | 40.4 µM (inactive) | 12.5 µM (inactive) |  | 61.1 µM | 34.1 µM (inactive) |  | 23.9 µM (inactive) | 13.1 µM (inactive) | > 100 µM (inactive) | 32.5 µM (inactive) | 77.4 µM (inactive) | > 100 µM (inactive) |  | 3.27 µM (inactive)
CNS(=O)(=O)NN(C)S(=O)(=O)c1ccc(OC)cc1 | 31 µM (inactive) | > 100 µM (inactive) | > 100 µM (inactive) | > 100 µM (inactive) | > 100 µM (inactive) | > 100 µM (inactive) | > 100 µM (inactive) | > 100 µM (inactive) |  | > 100 µM | > 100 µM (inactive) |  | > 100 µM (inactive) | > 100 µM (inactive) | > 100 µM (inactive) | > 100 µM (inactive) | > 100 µM (inactive) | > 100 µM (inactive) | > 100 µM (inactive) | 
CC(C)NC1CCCCC2c3cc(F)ccc3[C@]12O (stereo partly drawn) | > 100 µM (inactive) | > 100 µM (inactive) | > 100 µM (inactive) | > 100 µM (inactive) | > 100 µM (inactive) | > 100 µM (inactive) | > 100 µM (inactive) | > 100 µM (inactive) | > 100 µM (inactive) | > 100 µM | > 100 µM (inactive) | > 100 µM (inactive) | > 100 µM (inactive) | > 100 µM (inactive) | > 100 µM (inactive) | > 100 µM (inactive) | > 100 µM (inactive) | > 100 µM (inactive) | > 100 µM (inactive) | 
Cn1cnc([N+](=O)[O-])c1SC1=NCCS1 |  | > 100 µM (inactive) | 72.8 µM (inactive) | > 100 µM (inactive) | > 100 µM (inactive) | 50 µM (inactive) | 74.6 µM (inactive) | 91 µM (inactive) | > 100 µM (inactive) |  | > 100 µM (inactive) | > 100 µM (inactive) | 16.7 µM (inactive) | > 100 µM (inactive) | > 100 µM (inactive) | 22 µM (inactive) | 81.1 µM (inactive) | 47.6 µM (inactive) | > 100 µM (inactive) | 37.4 µM (inactive)
